# Reference: ChEMBL document CHEMBL1201862, “PubChem BioAssay data set” (2004)
#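 Briefly, cells in 96-well plates were exposed to five compound concentrations for 48 h, and endpoints were estimated by linear interpolation. GI50 = concentration required for 50% inhibition of growth.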 Activity calls are given as the source filed them. Rule as the data show it: active = GI50 up to about 1.1 µM and inactive = higher.
# Columns and labels:
# Assay in all cases: growth of human tumour cells (NCI), 48 h
# [1] = system: A498
# [2] = system: A549
# [3] = system: CAKI-1
# [4] = system: DU-145
# [5] = system: M14
# [6] = system: MDA-MB-435
# [7] = system: MOLT-4
# [8] = system: Malme-3M
# [9] = system: NCI-H226
# [10] = system: OVCAR-5
# [11] = system: OVCAR-8
# [12] = system: RPMI-8226
# [13] = system: RXF 393
# [14] = system: SF-268
# [15] = system: SK-MEL-5
# [16] = system: SK-OV-3
# [17] = system: SN12C
# [18] = system: SW-620
# [19] = system: TK-10
# [20] = system: U-251
Compound,GI50 [1],GI50 [2],GI50 [3],GI50 [4],GI50 [5],GI50 [6],GI50 [7],GI50 [8],GI50 [9],GI50 [10],GI50 [11],GI50 [12],GI50 [13],GI50 [14],GI50 [15],GI50 [16],GI50 [17],GI50 [18],GI50 [19],GI50 [20]
COC(=O)NC(Nc1ccc(C)cc1)(C(F)(F)F)C(F)(F)F,> 100 µM (inactive),> 100 µM (inactive),> 100 µM (inactive),> 100 µM (inactive),> 100 µM (inactive),> 100 µM (inactive),> 100 µM (inactive),> 100 µM (inactive),> 100 µM (inactive),> 100 µM (inactive),> 100 µM (inactive),> 100 µM (inactive),0.172 µM (active),> 100 µM (inactive),> 100 µM (inactive),> 100 µM (inactive),> 100 µM (inactive),> 100 µM (inactive),> 100 µM (inactive),> 100 µM (inactive)
CN1CCC(OC(=O)Oc2ccccc2)(c2ccccc2)CC1,23.8 µM (inactive),38.2 µM (inactive),77.3 µM (inactive),47.1 µM (inactive),15 µM (inactive),17.3 µM (inactive),13.1 µM (inactive),17.7 µM (inactive),22.7 µM (inactive),25.4 µM (inactive),17.5 µM (inactive),15.5 µM (inactive),37.3 µM (inactive),37.1 µM (inactive),20 µM (inactive),24.9 µM (inactive),15.4 µM (inactive),25.7 µM (inactive),19.1 µM (inactive),21.9 µM (inactive)
NC(=O)c1nnn(-c2ccccc2)c1O,> 100 µM (inactive),> 100 µM (inactive),> 100 µM (inactive),> 100 µM (inactive),> 100 µM (inactive),> 100 µM (inactive),> 100 µM (inactive),> 100 µM (inactive),> 100 µM (inactive),> 100 µM (inactive),> 100 µM (inactive),> 100 µM (inactive),> 100 µM (inactive),> 100 µM (inactive),> 100 µM (inactive),> 100 µM (inactive),> 100 µM (inactive),> 100 µM (inactive),> 100 µM (inactive),> 100 µM (inactive)
CCN(CC)CCC1(C(=O)OC)SCCc2ccc(C)cc21 (stereo not given),> 100 µM (inactive),> 100 µM (inactive),> 100 µM (inactive),> 100 µM (inactive),> 100 µM (inactive),> 100 µM (inactive),> 100 µM (inactive),> 100 µM (inactive),> 100 µM (inactive),> 100 µM (inactive),> 100 µM (inactive),> 100 µM (inactive),> 100 µM (inactive),> 100 µM (inactive),> 100 µM (inactive),> 100 µM (inactive),> 100 µM (inactive),> 100 µM (inactive),> 100 µM (inactive),> 100 µM (inactive)
CC(C)(C)OC(=O)NC1CC=CCC1NC(=O)OC(C)(C)C (stereo not given),> 100 µM (inactive),> 100 µM (inactive),> 100 µM (inactive),> 100 µM (inactive),> 100 µM (inactive),> 100 µM (inactive),> 100 µM (inactive),> 100 µM (inactive),> 100 µM (inactive),> 100 µM (inactive),> 100 µM (inactive),> 100 µM (inactive),95.5 µM (inactive),> 100 µM (inactive),97.7 µM (inactive),> 100 µM (inactive),> 100 µM (inactive),> 100 µM (inactive),> 100 µM (inactive),> 100 µM (inactive)
O/N=C1\CCc2cc3c(cc21)CCC3,> 100 µM (inactive),> 100 µM (inactive),> 100 µM (inactive),> 100 µM (inactive),> 100 µM (inactive),> 100 µM (inactive),> 100 µM (inactive),> 100 µM (inactive),> 100 µM (inactive),> 100 µM (inactive),> 100 µM (inactive),> 100 µM (inactive),> 100 µM (inactive),97.9 µM (inactive),> 100 µM (inactive),> 100 µM (inactive),> 100 µM (inactive),> 100 µM (inactive),> 100 µM (inactive),> 100 µM (inactive)
O=C1C(Cl)C(c2cc3cc(Br)ccc3nc2Cl)N1c1ccc(F)c(Cl)c1 (stereo not given),5.61 µM (inactive),12.6 µM (inactive),0.857 µM (active),8.02 µM (inactive),9.42 µM (inactive),5.64 µM (inactive),0.594 µM (active),11 µM (inactive),6.7 µM (inactive),12 µM (inactive),6.14 µM (inactive),1.36 µM (inactive),5.4 µM (inactive),2.99 µM (inactive),9.02 µM (inactive),6.75 µM (inactive),7.73 µM (inactive),5.98 µM (inactive),6.32 µM (inactive),2.77 µM (inactive)
CO[C@H]1C[C@H](O[C@H]2CC[C@]3(C=O)[C@H]4CC[C@]5(C)[C@@H](C6=CC(=O)OC6)CC[C@]5(O)[C@@H]4CC[C@]3(O)C2)O[C@H](C)[C@H]1O[C@@H]1O[C@H](CO)[C@@H](O)[C@H](O)[C@H]1O,5.81e-05 µM (active),4.46e-06 µM (active),1.34e-05 µM (active),6.34e-06 µM (active),4.73e-05 µM (active),4.61e-05 µM (active),5.42e-06 µM (active),2.7e-05 µM (active),7.85e-05 µM (active),3.52e-05 µM (active),3.34e-05 µM (active),3.7e-05 µM (active),1.51e-05 µM (active),1.19e-05 µM (active),2.62e-05 µM (active),4.23e-05 µM (active),1.05e-05 µM (active),3.16e-05 µM (active),2.48e-05 µM (active),4.07e-05 µM (active)
COc1cc2c(cc1OC)-c1cc3cc(OC)c(OC)cc3c(=O)n1CC2,7.59 µM (inactive),41.2 µM (inactive),4.93 µM (inactive),4.57 µM (inactive),27 µM (inactive),31.6 µM (inactive),3.51 µM (inactive),8.04 µM (inactive),8.75 µM (inactive),> 62.2 µM (inactive),41.9 µM (inactive),3.16 µM (inactive),17.3 µM (inactive),26.5 µM (inactive),4.41 µM (inactive),14.1 µM (inactive),14.6 µM (inactive),9.51 µM (inactive),8.07 µM (inactive),17.3 µM (inactive)
CC(C)(C)c1cc(C(O)(C(=O)O)C(=O)O)cc(C(C)(C)C)c1O,> 100 µM (inactive),> 100 µM (inactive),> 100 µM (inactive),> 100 µM (inactive),> 100 µM (inactive),> 100 µM (inactive),> 100 µM (inactive),> 100 µM (inactive),> 100 µM (inactive),> 100 µM (inactive),> 100 µM (inactive),> 100 µM (inactive),> 100 µM (inactive),> 100 µM (inactive),> 100 µM (inactive),> 100 µM (inactive),> 100 µM (inactive),> 100 µM (inactive),> 100 µM (inactive),> 100 µM (inactive)
C=CCN(c1cc(OC)c2[nH]cc(C)c2c1[N+](=O)[O-])S(C)(=O)=O,> 100 µM (inactive),> 100 µM (inactive),2.55 µM (inactive),> 100 µM (inactive),> 100 µM (inactive),> 100 µM (inactive),> 100 µM (inactive),> 100 µM (inactive),> 100 µM (inactive),> 100 µM (inactive),> 100 µM (inactive),> 100 µM (inactive),> 100 µM (inactive),> 100 µM (inactive),> 100 µM (inactive),> 100 µM (inactive),> 100 µM (inactive),> 100 µM (inactive),> 100 µM (inactive),> 100 µM (inactive)
